# Columns and labels:
# [1] = system: patients with a first episode of acute pericarditis; details: conventional treatment with aspirin, or the same plus colchicine 0.5 to 1.0 mg/day for 3 months; p=0.004; cited from earlier work
# [2] = system: patients with a first episode of recurrent pericarditis; details: conventional treatment with aspirin alone, or the same plus colchicine 0.5-1.0 mg/d for 6 months; cited from earlier work
# [3] = system: patients with stable coronary disease; experiment: LoDoCo trial: colchicine 0.5 mg/day added to standard secondary prevention therapy; type: in vivo, human
# Experimental: This study is described in PCT/AU2013/001261 and is hereby incorporated in its entirety by reference.
# All outcomes were evaluated by an experienced adjudicator blinded to the treatment allocation.
# Patients with a history of bypass surgery were only eligible if they had undergone bypass surgery more than 10 years before, or had angiographic evidence of graft failure or had undergone stenting since their bypass surgery. All patients signed informed consent before randomization.
# The randomization sequence was computer generated, kept concealed from the investigators at all times and was managed by a research assistant who had no involvement in the evaluation or management of study patients. […] Patients who were intolerant to therapy remained in the study, and were followed in the usual manner and included in the primary intention to treat analysis.
# The drug was dispensed by their usual chemist, and if requested, patients were reimbursed for the cost of these scripts. All other treatments were continued as usual.
# Patient compliance with treatment and outcome data were collected at routine follow up visits and at the time of any unplanned hospital admission. An acute coronary syndrome (ACS) was defined as either (a) Acute Myocardial Infarction (AMI), as evidenced by acute ischemic chest pain associated with a rise in serum troponin above the upper limit of normal or (b) Unstable Angina (UA), as evidenced by a recent acceleration of the patient's angina unassociated with a rise in serum troponin but associated with angiographic evidence of a change in the patient's coronary anatomy. (Unstable Angina Braunwald classification types IB and IIB). The ACS was characterized as being stent-related if there was evidence of significant in-stent stenosis or acute stent thrombosis. Out of Hospital Cardiac Arrest was defined as either a sudden death as evidenced on the patient's death certificate, or a non-fatal out of hospital cardiac arrest, defined as a recovery from sudden collapse associated with documented asystole, ventricular tachycardia or ventricular fibrillation. Noncardioembolic ischemic stroke was defined as CT or MRI proven ischemic stroke adjudged by the treating neurologist as not being due to atrial fibrillation or intracranial hemorrhage.
# The primary efficacy outcome was the composite, ACS, fatal or non-fatal out of hospital cardiac arrest or non-cardio-embolic ischemic stroke. Secondary outcomes were (a) individual components of the primary outcome, and (b) the components of ACS unrelated to stent disease.
# The pre-specified study duration was a minimum follow up of two years in all patients. Accordingly the study was closed on May 31, 2012. During May, all living patients were contacted by phone to collect compliance and outcome data from the last date of follow-up.
# Summary statistics, including mean and standard deviation were calculated for all baseline characteristics by treatment arm. All time to event outcomes were calculated in days by subtracting the date of randomization from either: (1) the date of event or death; or (2) the trial termination date for those patients not experiencing the defined event. As pre-specified, the primary efficacy analysis was based on the intention-to-treat principle. The intention-to-treat analysis included all randomized subjects and all events during the time from randomization to the trial termination. Trial termination date was fixed as May 31, 2012. A secondary pre-specified on-treatment analysis was also performed, based on patients who were both tolerant and compliant to therapy beyond the first month of randomization.
# The time-to-first-event for all outcomes is presented using a Kaplan-Meier plot. […] The secondary outcomes were analysed similarly.
# [4] = system: patients with stable coronary disease; details: 0.5 mg/day in addition to statins and other standard secondary prevention therapies; Nidorf et al., JACC 2013; cited from earlier work
SMILES,recurrence rate at 18 months [1] [%],"recurrence rate, actuarial rates at 18 months [2] [%]","deaths ([3]; colchicine group (282), all of non-cardiac causes, 10 in control group) [patients]","primary outcome, number needed to treat ([3]; intention to treat)","ACS unrelated to stent disease associated with UA, patients ([3]; intention to treat, 0.5 mg/day) [%]","ACS unrelated to stent disease associated with an AMI, patients ([3]; intention to treat, 0.5 mg/day) [%]","patients presenting with an ACS ([3]; intention to treat, 0.5 mg/day) [%]","patients presenting with an ACS unrelated to stent disease ([3]; intention to treat, 0.5 mg/day) [%]","primary outcome (composite of ACS, fatal or non-fatal out of hospital cardiac arrest or non-cardio-embolic ischemic stroke), patients with event ([3]; intention to treat, 0.5 mg/day, median follow up 36 months) [%]","events in patients compliant and tolerant to therapy beyond the first month ([3]; on-treatment analysis, 0.5 mg/day) [%]",out of hospital cardiac arrest and non-cardio-embolic ischemic stroke ([3]; treatment group vs control),prevention of cardiovascular events in patients with stable coronary disease [4]
CC(=O)Oc1ccccc1C(=O)O [aspirin],32.3,50.6,,,,,,,,,,
"COc1cc2c(c(OC)c1OC)-c1ccc(OC)c(=O)cc1[C@@H](NC(C)=O)CC2 [colchicine, N[5,6,7,9-tetrahydro-1,2,3,10-tetratmethoxy 9-oxobenzo[a]heptalen-7-yl],(S)-acetamide]",10.7,24.0,4,11,1.8,1.4,4.6,3.2,5.3,4.5,reduced,appeared effective

# — patent US20160081936A1 (MURRAY AND POOLE ENTERPRISES LIMITED, priority 2013, published 2016)
